Assay: solubility test of organometallic complexes in various solvents
Type: physicochemical
Conditions: for solubility x in anisole: solvent having aromatic ring: anisole; for solubility x in toluene: solvent having aromatic ring: toluene; for solubility x in 2-ethoxyethanol / solubility x in ethanol / solubility x in isopropanol / solubility x in methanol / solubility x in diethyl ether: solvent not having aromatic ring; for solubility x in 2-ethoxyethanol: alcohol: 2-ethoxyethanol; for solubility x in ethanol: alcohol: ethanol; for solubility x in isopropanol: alcohol: isopropanol; for solubility x in methanol: alcohol: methanol
Method: In Example 1, the solubility of an organometallic complex having a pyrazine skeleton as described in Embodiment Mode 1 was evaluated. The evaluation was performed by examining the solubility in various solvents. For the solvent, toluene and anisole were each used as a solvent having an aromatic ring. Further, diethyl ether which is ether, and 2-ethoxyethanol, isopropanol, ethanol, and methanol which are alcohols were each used as a solvent not having an aromatic ring.
In addition, the solubility of btp2Ir(acac) (a structural formula (101) given below), which is disclosed in Nonpatent Document 1 was evaluated as a comparative sample A. In addition, the solubility of Ir(ppy)2(acac) (a structural formula (102) given below) was evaluated as a comparative sample B.

Q: For `Cc1cnc(-c2[c-]cc(F)cc2)c(-c2ccc(F)cc2)n1.Cc1cnc(-c2[c-]cc(F)cc2)c(-c2ccc(F)cc2)n1.O=C([O-])c1ccccn1.[Ir+3]` [Sample 5], which “solubility x in anisole” value is on record?
A: ⊚ (a double circle in the case of x≧1.2)

Q: What about the “solubility x in toluene” value of the same compound?
A: ⊚ (a double circle in the case of x≧1.2)

Q: And the “solubility x in 2-ethoxyethanol” value?
A: ⊚ (a double circle in the case of x≧1.2)

Q: What about the “solubility x in ethanol” value of the same compound?
A: ⊚ (a double circle in the case of x≧1.2)

Q: What about the “solubility x in isopropanol” value of the same compound?
A: ⊚ (a double circle in the case of x≧1.2)

Q: And the “solubility x in methanol” value?
A: X (a cross in the case of x<0.6)

Q: And the “solubility x in diethyl ether” value?
A: X (a cross in the case of x<0.6)

Q: With `CC(=O)C=C(C)[O-].Cc1cnc(-c2[c-]cc(F)cc2)c(-c2ccc(F)cc2)n1.Cc1cnc(-c2[c-]cc(F)cc2)c(-c2ccc(F)cc2)n1.[Ir+3]` [Sample 4] as the compound, how does the “solubility x in anisole” value read?
A: ⊚ (a double circle in the case of x≧1.2)

Q: And the “solubility x in toluene” value?
A: ⊚ (a double circle in the case of x≧1.2)

Q: And the “solubility x in 2-ethoxyethanol” value?
A: ⊚ (a double circle in the case of x≧1.2)

Q: What about the “solubility x in ethanol” value of the same compound?
A: X (a cross in the case of x<0.6)

Q: And the “solubility x in isopropanol” value?
A: X (a cross in the case of x<0.6)

Q: What about the “solubility x in methanol” value of the same compound?
A: X (a cross in the case of x<0.6)

Q: And the “solubility x in diethyl ether” value?
A: ⊚ (a double circle in the case of x≧1.2)

Q: What does the source list for `CC(=O)C=C(C)[O-].Fc1c[c-]c(-c2nccnc2-c2ccc(F)cc2)cc1.Fc1c[c-]c(-c2nccnc2-c2ccc(F)cc2)cc1.[Ir+3]` [Sample 2]?
A: solubility x in anisole: ⊚ (a double circle in the case of x≧1.2); solubility x in toluene: ◯ (a circle in the case of 1.2>x≧0.9); solubility x in 2-ethoxyethanol: X (a cross in the case of x<0.6); solubility x in ethanol: X (a cross in the case of x<0.6); solubility x in isopropanol: X (a cross in the case of x<0.6); solubility x in methanol: X (a cross in the case of x<0.6); solubility x in diethyl ether: X (a cross in the case of x<0.6)

Q: With `CC(=O)C=C(C)[O-].Cc1nc(C(C)C)cnc1-c1[c-]cccc1.Cc1nc(C(C)C)cnc1-c1[c-]cccc1.[Ir+3]` [Sample 9] as the compound, how does the “solubility x in anisole” value read?
A: ⊚ (a double circle in the case of x≧1.2)

Q: And the “solubility x in toluene” value?
A: ⊚ (a double circle in the case of x≧1.2)

Q: And the “solubility x in 2-ethoxyethanol” value?
A: ⊚ (a double circle in the case of x≧1.2)

Q: What about the “solubility x in ethanol” value of the same compound?
A: Δ (a triangle in the case of 0.9>x≧0.6)

Q: And the “solubility x in isopropanol” value?
A: Δ (a triangle in the case of 0.9>x≧0.6)

Q: And the “solubility x in methanol” value?
A: X (a cross in the case of x<0.6)

Q: What about the “solubility x in diethyl ether” value of the same compound?
A: ⊚ (a double circle in the case of x≧1.2)

Q: What does the source list for `CC(C)c1cnc(-c2[c-]cc(F)cc2)c(-c2ccc(F)cc2)n1.CC(C)c1cnc(-c2[c-]cc(F)cc2)c(-c2ccc(F)cc2)n1.O=C([O-])c1ccccn1.[Ir+3]` [Sample 7]?
A: solubility x in anisole: ⊚ (a double circle in the case of x≧1.2); solubility x in toluene: ⊚ (a double circle in the case of x≧1.2); solubility x in 2-ethoxyethanol: ⊚ (a double circle in the case of x≧1.2); solubility x in ethanol: X (a cross in the case of x<0.6); solubility x in isopropanol: X (a cross in the case of x<0.6); solubility x in methanol: X (a cross in the case of x<0.6); solubility x in diethyl ether: X (a cross in the case of x<0.6)

Q: With `CC(=O)C=C(C)[O][Ir]([c]1ccccc1-c1ncc(-c2ccccc2)nc1-c1ccccc1)[c]1ccccc1-c1ncc(-c2ccccc2)nc1-c1ccccc1` [Sample 10, (acetylacetonato)bis(2,3,5-triphenylpyrazinato)iridium(III)] as the compound, how does the “solubility x in anisole” value read?
A: ⊚ (a double circle in the case of x≧1.2)

Q: What about the “solubility x in toluene” value of the same compound?
A: ⊚ (a double circle in the case of x≧1.2)

Q: And the “solubility x in 2-ethoxyethanol” value?
A: ⊚ (a double circle in the case of x≧1.2)

Q: What about the “solubility x in ethanol” value of the same compound?
A: X (a cross in the case of x<0.6)

Q: What about the “solubility x in isopropanol” value of the same compound?
A: X (a cross in the case of x<0.6)

Q: What about the “solubility x in methanol” value of the same compound?
A: X (a cross in the case of x<0.6)

Q: What about the “solubility x in diethyl ether” value of the same compound?
A: ⊚ (a double circle in the case of x≧1.2)

Q: Which results are given for `CC(=O)C=C(C)[O-].[Ir+3].[c-]1ccccc1-c1nccnc1-c1ccccc1.[c-]1ccccc1-c1nccnc1-c1ccccc1` [Sample 1]?
A: solubility x in anisole: ⊚ (a double circle in the case of x≧1.2); solubility x in toluene: ◯ (a circle in the case of 1.2>x≧0.9); solubility x in 2-ethoxyethanol: X (a cross in the case of x<0.6); solubility x in ethanol: X (a cross in the case of x<0.6); solubility x in isopropanol: X (a cross in the case of x<0.6); solubility x in methanol: X (a cross in the case of x<0.6); solubility x in diethyl ether: X (a cross in the case of x<0.6)

Reference: patent US20080233432A1, “Composition, Method for Fabricating Light-Emitting Element, Light-Emitting Element, Light-Emitting Device, and Electronic Device” (Semiconductor Energy Laboratory Co., Ltd., priority 2007, published 2008)
